Assay results reported in US20010041801A1, “Water soluble fullerenes with antiviral activity” (The Regents of the University of California, priority 1994, published 2001).
Read-outs that look alike come from different tables or passages of the source.

How the values were obtained:
HIV-1 protease (HIVP) = molecular target: T1, HIV-1 protease (HIVP) (Human immunodeficiency virus type 1 group M subtype B, UniProt P04585); experiment: Inhibition of HIV-1 protease, HPLC assay with kinetic analysis; format: biochemical; details: 50 mM NaAc pH 5.5, 1.0 M NaCl; 5 min preincubation; fit to competitive inhibition; read-out: Ki
T1 construct: HIV produces a small, dimeric aspartyl protease which specifically cleaves the polyprotein precursors
Protocol: The ability of compound 2c to inhibit the HIVP was assayed with an HPLC method as described in R. L DesJarlais, et al., Proc. Natl. Acad. Sci U.S.A., 87:6644-6648, 1990. […] Assays were performed in buffer containing 50 mM NaAc pH 5.5, 1.0 M NaCl, 5% glycerol, 1% DMSO, and 2 mM EDTA. Inhibitor was preincubated with ≈0.05 μg of enzyme for 5 minutes at which time the reaction was initiated by addition of substrate. The reaction was quenched at <15% product formation by the addition of 15 μL of 10% TFA. The cleavage products of the substrate peptide H-Lys-Ala-Arg-Val-Tyr-p-nitro-Phe-Glu-Ala-Ile-NH2 (made by Bachem, Philadelphia, Pa.) were assayed by HPLC using a 10-40% (acetonitrile, 0.1% TFA): (water, 0.1% TFA) gradient over 30 minutes at 1 mL/minute. Product was quantitated by integration of peak areas followed by comparison to product standard curves.
Determination of kinetic constants was done with the program KinetAsyst (IntelliKinetics) by fitting of the data to the equation […]] which describes competitive inhibition.

HIV-1 LAI = experiment: Antiviral activity in acutely infected human PBMC, virus RT level; format: cell-based; details: acutely infected, virus RT level on day 6, read-out: Antiviral Activity (EC50) in PBMC infected with HIVLAI
Protocol: (§1) Compound 2c was evaluated for antiviral activity in cells acutely and chronically infected with human immunodeficiency virus (HIV). Reverse transcriptase (RT) levels associated with virus were determined with virus concentrated from cell culture supernatants by high-speed centrifugation to reduce the chances of drug carryover in the enzyme assay using the method described in R. F. Schinazi, et al., Antimicrob. Agents Chemother., 36:2423-2431, 1992.

HIV-2ROD = experiment: as above; format: cell-based; details: acutely infected, virus RT level on day 6, read-out: Antiviral Activity (EC50) in PBMC infected with HIV-2ROD
Protocol: as §1

PBMC = experiment: Cytotoxicity in uninfected PBMC; format: cell-based, human; details: thymidine uptake day 2 and cell counts day 6
Vero cells = experiment: Cytotoxicity in Vero cells; format: cell-based; details: day 3
CEM cells = experiment: Cytotoxicity in CEM cells; format: cell-based; details: cell counts on day 6
HIV-1 RT = HIV-1 RT (Human immunodeficiency virus type 1 group M subtype B, UniProt P04585); experiment: Inhibition of recombinant p66/51 HIV-1 RT, poly(rA)n.oligo(T)12-18 template-primer; format: biochemical; details: cell-free; AZT-5′-triphosphate used for AZT; read-out: IC50 Polymerases: HIV-1 RT
Protocol: The compound was also evaluated for its inhibitory effect on recombinant p66/51 HIV-1 RT by using poly(rA)n.oligo(T)12-18 as the template-primer as described in Schinazi, et al. (1992, supra). Compound 2c was active against this enzyme, with a median inhibitory concentration (1C50) of 4.6 μM. This value was of the same order of magnitude as that noted for the antiviral assays (TABLE 3). […] AZT-5′ triphosphate and phosphonoformate (PFA), used as positive controls, were effective and selective against HIV-1 RT.

DNA polymerase α = DNA polymerase α (Homo sapiens, UniProt P09884); experiment: Inhibition of cellular DNA polymerase α, cell-free; format: biochemical; details: AZT-5′-triphosphate used for AZT, read-out: IC50 Polymerases: DNA Polymerase α
[1] = tested on: nevirapine (BI-RG587)-resistant HIV-1; experiment: Susceptibility of nevirapine-resistant HIV-1; format: cell-based
Solubility in water = details: physiologic pH, generally between pH 6 and 8
HIV-1III = experiment: Antiviral activity in chronically infected H9 cells, virus RT level; format: cell-based
Protocol: as §1

[2] = Cytotoxicity in uninfected PBMC; format: cell-based, human; details: human, uninfected PBMC; thymidine uptake day 2 and cell counts day 6
Cytotoxicity in H9 cells = format: cell-based, human; details: human, H9 cells; cell counts on day 6
[3] = Cytotoxicity in Vero cells; format: cell-based; details: African green monkey, Vero cells; day 3
[4] = Cytotoxicity in CEM cells; format: cell-based; details: human, CEM cells; cell counts on day 6
HIV-1 HI 12.2 = experiment: Susceptibility of pretherapy AZT-susceptible isolate in acutely infected PBMC; format: cell-based; details: Human immunodeficiency virus 1, PBMC, read-out: EC50 against pretherapy isolate
Excerpt: (§2) The availability of AZT-resistant and -susceptible viruses allowed us to evaluate the compounds of this invention for their susceptibilities to these viruses in acutely infected PBMC in two experiments. […] In the same assay, the EC50 for TIBO [(+)-(5s)-4,5,6,7-tetrahydro-5methyl-6-(3-methyl-2-butenyl)imidazo(4,5,1-jk)(1,4)benzodiazepin-2(1 H)-thione] R82150 increased >500-fold (data not shown).

HIV-1G910-6 = experiment: microbe, parasite or virus in culture; format: cell-based
Excerpt: as §2

DNA polymerase α, sequence (P09884 whole entry): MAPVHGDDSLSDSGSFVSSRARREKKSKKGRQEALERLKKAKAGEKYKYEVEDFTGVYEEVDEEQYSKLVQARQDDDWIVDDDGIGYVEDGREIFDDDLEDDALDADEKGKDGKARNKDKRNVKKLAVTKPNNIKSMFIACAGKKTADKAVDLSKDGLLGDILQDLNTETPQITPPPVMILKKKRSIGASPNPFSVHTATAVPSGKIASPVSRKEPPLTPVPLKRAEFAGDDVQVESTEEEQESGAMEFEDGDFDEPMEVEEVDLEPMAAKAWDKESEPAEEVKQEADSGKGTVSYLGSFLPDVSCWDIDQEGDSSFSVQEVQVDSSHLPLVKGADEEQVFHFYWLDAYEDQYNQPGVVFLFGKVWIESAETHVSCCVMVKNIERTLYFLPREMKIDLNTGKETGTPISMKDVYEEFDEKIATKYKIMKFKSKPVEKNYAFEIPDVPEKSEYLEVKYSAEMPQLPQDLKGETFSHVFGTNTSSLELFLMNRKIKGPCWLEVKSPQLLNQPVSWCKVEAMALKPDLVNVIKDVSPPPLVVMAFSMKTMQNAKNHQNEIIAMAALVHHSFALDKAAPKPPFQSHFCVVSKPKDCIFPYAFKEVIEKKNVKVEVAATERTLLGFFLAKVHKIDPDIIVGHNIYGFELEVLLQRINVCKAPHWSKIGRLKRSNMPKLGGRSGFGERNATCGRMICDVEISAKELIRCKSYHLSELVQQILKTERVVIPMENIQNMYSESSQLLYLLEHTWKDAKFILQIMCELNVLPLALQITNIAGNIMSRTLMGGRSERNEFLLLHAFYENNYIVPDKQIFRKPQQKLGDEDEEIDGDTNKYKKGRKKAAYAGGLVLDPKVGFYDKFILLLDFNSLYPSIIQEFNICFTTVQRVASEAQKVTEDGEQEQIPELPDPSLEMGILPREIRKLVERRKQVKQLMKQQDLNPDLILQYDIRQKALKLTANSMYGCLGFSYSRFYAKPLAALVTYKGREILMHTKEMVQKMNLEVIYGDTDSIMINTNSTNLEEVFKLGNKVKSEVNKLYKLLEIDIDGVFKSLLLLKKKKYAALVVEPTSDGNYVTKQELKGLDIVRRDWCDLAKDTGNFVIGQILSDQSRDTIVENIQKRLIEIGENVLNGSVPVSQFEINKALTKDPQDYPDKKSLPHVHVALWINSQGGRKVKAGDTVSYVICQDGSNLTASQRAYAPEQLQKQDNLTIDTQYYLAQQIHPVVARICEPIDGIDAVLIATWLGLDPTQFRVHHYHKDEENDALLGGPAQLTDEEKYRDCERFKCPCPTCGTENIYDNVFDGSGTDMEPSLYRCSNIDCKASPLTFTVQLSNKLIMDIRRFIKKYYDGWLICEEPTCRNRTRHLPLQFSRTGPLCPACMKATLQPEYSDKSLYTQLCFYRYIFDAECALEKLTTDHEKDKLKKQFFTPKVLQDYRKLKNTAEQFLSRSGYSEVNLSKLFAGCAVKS
DNA polymerase α, sequence (Q14181 whole entry partner): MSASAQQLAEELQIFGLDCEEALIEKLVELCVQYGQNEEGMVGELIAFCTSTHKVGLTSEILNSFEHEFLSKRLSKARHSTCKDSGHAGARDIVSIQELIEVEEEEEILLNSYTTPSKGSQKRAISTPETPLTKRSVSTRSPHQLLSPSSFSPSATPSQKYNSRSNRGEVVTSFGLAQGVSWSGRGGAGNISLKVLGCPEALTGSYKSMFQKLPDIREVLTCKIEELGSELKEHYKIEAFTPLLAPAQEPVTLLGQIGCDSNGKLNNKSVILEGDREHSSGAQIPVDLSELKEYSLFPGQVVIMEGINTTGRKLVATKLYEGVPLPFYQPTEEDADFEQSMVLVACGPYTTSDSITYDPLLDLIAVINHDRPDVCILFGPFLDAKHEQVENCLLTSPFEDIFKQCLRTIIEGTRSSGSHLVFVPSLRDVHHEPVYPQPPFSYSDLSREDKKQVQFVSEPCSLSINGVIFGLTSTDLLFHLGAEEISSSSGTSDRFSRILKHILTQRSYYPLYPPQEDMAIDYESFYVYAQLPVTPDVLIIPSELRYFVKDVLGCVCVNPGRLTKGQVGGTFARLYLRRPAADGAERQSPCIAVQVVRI
DNA polymerase α, sequence (P49642 whole entry partner): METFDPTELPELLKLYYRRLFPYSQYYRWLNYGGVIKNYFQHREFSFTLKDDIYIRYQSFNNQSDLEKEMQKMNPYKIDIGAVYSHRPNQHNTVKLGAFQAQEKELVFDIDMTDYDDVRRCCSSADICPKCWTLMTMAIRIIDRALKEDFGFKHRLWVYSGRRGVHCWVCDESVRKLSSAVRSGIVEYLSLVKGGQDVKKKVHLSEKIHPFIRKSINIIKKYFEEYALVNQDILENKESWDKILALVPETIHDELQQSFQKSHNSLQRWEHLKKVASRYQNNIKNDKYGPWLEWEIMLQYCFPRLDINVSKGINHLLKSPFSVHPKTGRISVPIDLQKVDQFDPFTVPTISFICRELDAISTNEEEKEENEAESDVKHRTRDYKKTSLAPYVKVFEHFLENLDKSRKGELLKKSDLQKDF
DNA polymerase α, sequence (P49643 whole entry partner): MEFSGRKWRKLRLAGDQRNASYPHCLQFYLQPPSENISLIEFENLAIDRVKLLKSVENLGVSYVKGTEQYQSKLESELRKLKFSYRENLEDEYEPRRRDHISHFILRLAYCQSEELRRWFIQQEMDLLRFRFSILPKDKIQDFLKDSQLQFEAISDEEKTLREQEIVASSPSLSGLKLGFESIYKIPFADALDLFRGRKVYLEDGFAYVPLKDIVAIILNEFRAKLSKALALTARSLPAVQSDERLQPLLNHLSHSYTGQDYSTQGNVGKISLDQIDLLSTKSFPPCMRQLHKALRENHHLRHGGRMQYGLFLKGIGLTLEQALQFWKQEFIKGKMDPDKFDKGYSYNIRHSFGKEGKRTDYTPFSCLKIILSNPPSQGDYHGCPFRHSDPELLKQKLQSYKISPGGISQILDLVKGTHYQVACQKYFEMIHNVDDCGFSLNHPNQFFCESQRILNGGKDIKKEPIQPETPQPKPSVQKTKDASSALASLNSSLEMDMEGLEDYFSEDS

NCCc1ccc(C2(c3ccc(CCN)cc3)C34c5c6c7c8c9c%10c(c%11c%12c3c3c5c5c%13c6c6c7c7c9c9c%14c%10c%10c%11c%11c%12c%12c3c3c5c5c%13c%13c6c6c7c9c7c9c%14c%10c%10c%11c%11c%12c3c3c5c5c%13c6c7c6c9c%10c%11c3c56)C824)cc1 [Compound 2b, 4,4′-Bis(2-aminoethyl)diphenyl C61]
Ki (HIV-1 protease (HIVP)): ~2000 nM

O=C(O)P(=O)(O)O [PFA, phosphonoformate, reference compound]
EC50 (HIV-1 LAI): 430 nM
EC50 (HIV-2ROD): 440 nM
IC50 (PBMC): > 640000 nM
IC50 (Vero cells): > 100000 nM
IC50 (CEM cells): > 100000 nM
IC50 (HIV-1 RT): 320 nM
IC50 (DNA polymerase α): > 100000 nM

CC(C)=CCN1Cc2cccc3[nH]c(=S)n(c23)C[C@@H]1C [TIBO R82150, (+)-(5s)-4,5,6,7-tetrahydro-5methyl-6-(3-methyl-2-butenyl)imidazo(4,5,1-jk)(1,4)benzodiazepin-2(1 H)-thione, reference compound]
increase in resistance, nevirapine-resistant vs -susceptible HIV-1 [1]: > 500 fold

4,4′-Bis(2-aminoethyl)diphenyl C61 [hydrochloride salt of compound 2b]
water solubility (Solubility in water): not to be soluble

Cc1cn([C@H]2C[C@H](N=[N+]=[N-])[C@@H](CO)O2)c(=O)[nH]c1=O [AZT, 3′-Azido-3′-deoxythymidine, reference compound]
EC50 (HIV-1 LAI; Human immunodeficiency virus 1, PBMC, 144 h): 4 nM
EC50 (HIV-2ROD; Human immunodeficiency virus 2, PBMC, 144 h): 3 nM
effect in chronically infected H9 cells (HIV-1III): no effect
EC50 (HIV-1III; Human immunodeficiency virus 1, H9, 144 h, chronically infected, virus RT level after 6 days of treatment, read-out: Antiviral Activity (EC50) in H9 cells infected with HIV-1III): > 100000 nM
IC50 [2]: > 100000 nM
IC50 at 6 days (Cytotoxicity in H9 cells): 60000 nM
IC50 at 3 days [3]: 23000 nM
IC50 at 6 days [4]: 13000 nM
IC50 (HIV-1 RT): 40 nM
IC50 (DNA polymerase α): > 100000 nM
EC50 (HIV-1 HI 12.2): < 1 nM
EC50 (HIV-1G910-6; Human immunodeficiency virus 1, PBMC, read-out: EC50 against AZT-resistant HIV-1, acutely infected PBMC / lymphocytes): 180 nM
increase of EC50, AZT-resistant vs pretherapy virus (HIV-1G910-6; virus pair HIV-1 HI 12.2 / HIV-1G910-6): more than 180 fold
